According to PMC8448514, “Exploratory comparisons between different anti-mitotics in clinically-used drug combination in triple negative breast cancer” (Oncotarget, 2021):
Each block holds one molecule with its values, some of them ahead of it.

Legend:
breast cancer = conditions: cited from earlier work
tumor cell apoptosis = test: TUNEL assay for apoptosis in tumor sections; format: in vivo, mice; conditions: paclitaxel 20 mg/Kg; AC-T; AC-4bt; vs vehicle
Method: The level of apoptosis in tumor sections was determined by TUNEL assay. TUNEL staining was performed on paraffin-embedded sections using Click-iT™ TUNEL Colorimetric IHC Detection Kit (Invitrogen, Carlsbad – USA) according to the manufacturer’s protocol. Briefly, the sections were dewaxed, rehydrated, and immersed in 4% paraformaldehyde fixative solution for 15 minutes. They were then washed and incubated with proteinase K for 20 min at room temperature. The slides were washed with PBS for 5 minutes, and immersed in 4% paraformaldehyde fixative solution again for 5 minutes at room temperature. Slides were then washed with PBS (twice, for 5 minutes) and rinsed with deionized water. Samples were incubated in TdT Reaction Buffer for 10 minutes at 37°C. The TdT reaction buffer was gently removed using paper towels and slides were incubated with TdT Reaction Mixture for another hour at 37°C in a humidified chamber. After being rinsed with PBS, slides were immersed in 2X SSC for 15 minutes, in order to fully quench TdT reaction. Slides were washed with 1X Click-iT™ TUNEL Colorimetric Wash solution and incubated with the Click-iT™ TUNEL Colorimetric Reaction cocktail for 30 minutes at 37°C, protected from light. […]
After acquisition, images were submitted to a semi-quantitative analysis using the IHC Profiler plug-in (National Institute of Health) from ImageJ software. […]

[1] = tested on: intratumoral necrotic area of MDA-MB-231 tumor; test: Histopathological analysis of tumor sections (H&E); format: in vivo, mice; conditions: monotherapy; 4bt, 4bc 80 mg/Kg, paclitaxel 20 mg/Kg; vs vehicle
Method: Tumors and lungs were fixed in 10% buffered formalin and processed for paraffin embedding. Processed material was sectioned at 5 μm, and sections were stained with hematoxylin & eosin (HE) for analysis under the light microscope Axiovert (Zeiss, Germany). Tumor and lung sections were analyzed for general histopathological assessment.

[2] = tested on: Balb-c nude mice bearing breast tumor; test: Red blood cell analysis (complete blood count); format: in vivo; conditions: 20 mg/kg i.p., monotherapy; mean ± SEM
ALDH1-A1 = ALDH1-A1 immunohistochemistry of tumor sections; format: in vivo, mice; conditions: 4bt, 4bc 80 mg/Kg, paclitaxel 20 mg/Kg; vs vehicle
Source text: After acquisition, images were submitted to a semi-quantitative analysis using the IHC Profiler plug-in (National Institute of Health) from ImageJ software. Images were submitted to a deconvolution process, and histogram profiles, corresponding to pixel intensity as well as a stain-positivity percentage value derived from a scoring system based on optical density, were automatically generated. Areas rated as highly positive or positive were considered for analysis.
In order to evaluate the role of KIF-11 inhibitors in some key features for tumor progression and development, we analyzed tumor sections for the levels of KIF-11, ALDH1-A1 and Ki67 expression by immunofluorescence (IF) or immunohistochemistry. Immunostaining was performed on 5 μm sections of formalin-fixed paraffin-embedded (FFPE) tissue. […]
(§1) Slides were then washed in PBS/0.025% Triton, incubated at room temperature in the dark with (1:500) Alexa Fluor 488-Anti-rabbit secondary antibody, for KIF-11 and Ki67, or (1:250) Goat anti-rabbit HRP, for ALDH1-A1 for 1 hour, washed three times with PBS. […] Slides for ALDH1-A1 analysis were counterstained with hematoxylin and analyzed under light microscope Axiovert (Zeiss, Germany).
For ALDH1-A1 quantification of positive areas, IHC Profiler plug-in was used as previously described for TUNEL analysis.

Balb-c/nude mice = test: Behavioral observation (motor capacity, peripheral neuropathy); format: in vivo; conditions: a few minutes after administration; paclitaxel 10 or 20 mg/Kg, 4bt 80 mg/Kg; monotherapy and drug combination
Method: (§2) Animals of all experimental groups were monitored with regards to their weight, behavior and clinical aspects. Animals body weight were assessed prior the beginning of treatment and twice a week throughout the experiment period as an important indicator of toxicity.

[3] = tested on: Balb-c nude mice bearing breast tumor; test: Biochemical analysis of blood (liver and kidney toxicity); format: in vivo; conditions: 20 mg/kg i.p., monotherapy
[4] = tested on: Balb-c nude mice bearing breast tumor; test: White blood cell and platelet analysis (complete blood count); format: in vivo; conditions: 20 mg/kg i.p., monotherapy, mean ± SEM
[5] = Body weight and clinical monitoring
Method: as §2
All treatments were administered intraperitoneally (i.p) (Figure 7).
Animal weight was also monitored with help of a digital scale twice a week.

KIF11 = test: Intratumoral KIF11 expression by immunofluorescence; format: in vivo, mice; conditions: 4bt, 4bc 80 mg/Kg; paclitaxel 20 mg/Kg; AC-T; AC-4bt; vs vehicle
Method: In order to evaluate the role of KIF-11 inhibitors in some key features for tumor progression and development, we analyzed tumor sections for the levels of KIF-11, ALDH1-A1 and Ki67 expression by immunofluorescence (IF) or immunohistochemistry. Immunostaining was performed on 5 μm sections of formalin-fixed paraffin-embedded (FFPE) tissue. Tissue slides were baked, deparaffinized in xylene and passed through graded alcohols for rehydration. Antigen retrieval was achieved submitting samples to a 10 mM Trisodium Citrate solution, pH 6.0 in a steam pressure cooker at 100°C for 10 minutes. Slides were then left immersed in the Trisodium Citrate solution at room temperature for 20 minutes before being washed with PBS/0.025% Triton. The area around each section was delimited by a hydrophobic liquid blocker (PAP-Pen) in order to assure homogeneous distribution of reagents and antibodies.
as §1

[6] = tested on: breast cancer induced by MDA-MB-231; test: Tumor volume monitoring in xenograft model; format: in vivo, mice; conditions: used in combination with doxorubicin 10 mg/Kg and cyclophosphamide 100 mg/Kg; 4bt 80 mg/Kg, paclitaxel 10 mg/Kg
Method: Mice were anesthetized with ketamine (80 mg/kg of body weight) and xylazine (20 mg/kg of body weight) solution. 2 × 10^6 MDA-MB-231 cells in PBS/20% type I Collagen (100 μL) were inoculated in the fourth right mammary fat pad. After tumor establishment, about 5 weeks after inoculation, mice were randomized into experimental groups (n = 5 per group), and treatment started.

Structure (SMILES): Cc1ccc(C(=O)N(CCCN)[C@@H](c2nc3cc(Cl)ccc3c(=O)n2Cc2ccccc2)C(C)C)cc1 [Ispinesib]
Neurotoxicity / tolerability (breast cancer; clinical): no indication of neurotoxicity
Antitumor activity in phase I trial (breast cancer; phase I trial in breast cancer): relevant antitumor activity and stabilization of the disease

Hematocrit [2]: 42.56 ± 0.62 %
Hemoglobin [2]: 12.80 ± 0.14 g/dL
MCH (mean corpuscular hemoglobin) [2]: 15.73 ± 0.05 pg
MCHC (mean corpuscular hemoglobin concentration) [2]: 30.07 ± 0.12 g/dL
MCV (mean corpuscular volume) [2]: 52.23 ± 0.42 fL
RDW (red cell distribution width) [2]: 22.85 ± 0.98 %
Red cells [2]: 8.15 ± 0.08 10^6/mm^3
Motor capacity / behavioral changes (Balb-c/nude mice): reduced motor capacity
Basophils (%) [4]: 2 ± 1.25%
Basophils (Abs) [4]: 42.79 ± 22.69
Eosinophils (%) [4]: 0.00%
Eosinophils (Abs) [4]: 0.00
Lymphocytes (%) [4]: 78.63 ± 2.36%
Lymphocytes (Abs) [4]: 1682.24 ± 602.57
MPV (mean platelet volume) [4]: 7.07 ± 0.12 fL
Monocytes (%) [4]: 4.79 ± 3.74%
Monocytes (Abs) [4]: 102.51 ± 65.75
Neutrophils (%) [4]: 12.07 ± 5.10%
Neutrophils (Abs) [4]: 258.30 ± 103.76
Platelets [4]: 1070.01 ± 37.28 10^3/mm^3
WBC (white blood cells) [4]: 2139.39 ± 684.75
WBC (white blood cells) ([4]; listed as paclitaxel): 2139.39 ± 684.75
Structure (SMILES): CC(=O)O[C@H]1C(=O)[C@@]2(C)[C@H]([C@H](OC(=O)c3ccccc3)[C@]3(O)C[C@H](OC(=O)[C@H](O)[C@@H](NC(=O)c4ccccc4)c4ccccc4)C(C)=C1C3(C)C)[C@]1(OC(C)=O)CO[C@@H]1C[C@@H]2O [Paclitaxel, paclitaxel]
TUNEL positive area staining (apoptotic activity) (tumor cell apoptosis): substantially increase positive area staining
Intratumoral necrotic area [1]: reduction in the size of necrotic area
ALDH1-A1 expression change (ALDH1-A1): didn’t cause significant changes in ALDH1-A1 expression
Creatinine [3]: < 0,2 mg/dL
ALP (alkaline phosphatase) ([3]; mean ± SEM): 86.50 ± 10.5 U/L
ALT (alanine transaminase) ([3]; mean ± SEM): 21.50 ± 1.50 UI/L
AST (aspartate aminotransferase) ([3]; mean ± SEM): 98.50 ± 21.50 UI/L
GGT (gamma-glutamyl transferase) ([3]; mean ± SEM): < 1 U/L
LDH (lactate dehydrogenase) ([3]; mean ± SEM): 464.50 ± 50.5 U/L
Urea ([3]; mean ± SEM): 59.00 ± 2.00 mg/dL
Body weight change ([5]; cycles of paclitaxel 10 mg/Kg or 4bt 80 mg/Kg after AC): did not cause any further reduction
Body weight change ([5]; monotherapy, 4bt and 4bc 80 mg/Kg, PTX 20 mg/Kg, 1 week after the beginning of treatment, no significant change afterwards): weight reduction
Intratumoral KIF11 expression (KIF11): didn’t cause any change on KIF11 levels
Tumor volume [6]: significantly decreasing the tumor volume
